In general, IC50 refers to the midpoint of a concentration-inhibition curve. Lower therefore signals higher potency.

This assay deals with T1, Pantetheinase [T26I] (Homo sapiens, UniProt O95497, T26I).
T1 construct: gene VNN1
T1 sequence (O95497 22-491 T26I limits assumed): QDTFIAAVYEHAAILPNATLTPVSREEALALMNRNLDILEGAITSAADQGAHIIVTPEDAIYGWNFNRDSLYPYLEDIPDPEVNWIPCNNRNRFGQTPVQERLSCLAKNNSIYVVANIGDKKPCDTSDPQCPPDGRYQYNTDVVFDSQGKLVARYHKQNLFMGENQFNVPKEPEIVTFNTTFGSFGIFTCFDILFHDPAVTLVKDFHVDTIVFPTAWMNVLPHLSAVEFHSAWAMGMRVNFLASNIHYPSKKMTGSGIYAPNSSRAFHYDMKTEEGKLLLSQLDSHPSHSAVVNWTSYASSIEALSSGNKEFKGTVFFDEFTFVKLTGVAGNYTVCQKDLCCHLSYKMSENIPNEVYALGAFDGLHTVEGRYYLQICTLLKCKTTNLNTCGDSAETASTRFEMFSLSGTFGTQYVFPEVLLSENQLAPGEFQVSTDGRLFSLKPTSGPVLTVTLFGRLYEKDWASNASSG
Put plainly: Enzymatic Assay. The protocol: Method 1:Vanin-1 Enzymatic Assay:The test compounds are dissolved in 100% DMSO at a concentration of 10 mM and in a first step diluted in DMSO to a concentration of 5 mM, followed by serial dilution steps in 100% DMSO. Dilution factor and number of dilution steps may vary according to needs. Typically 8 different concentrations by 1:5 dilutions are prepared, a further intermediate dilutions of the substances is carried out with assay buffer resulting in 1% final DMSO concentration in the assay. 0.15 nM of FLAG-tagged Vanin-1 (AA 22-493, T26I, produced internally) and test compounds are incubated at room temperature for 15 minutes in assay buffer (1 mM DTT, 0.0025% Brij-35, 50 mM HEPES, pH7.5). 3 μM D-Pantethine (Sigma, Cat#P2125-5G) in assay buffer is added and incubated for additional 30 minutes at room temperature. Reaction is stopped by adding equal volume of stop solution as the reaction mixture to reach 5 nM Nevirapine (as an internal standard) and 0.5% TFA. Assay plates are centrifuged for 2 minutes and the formation of pantothenic acid is detected by RapidFire Mass Spectrometry (mobile phase A: 0.1% formic acid in water, mobile phase B: 100% methanol) using graphitic carbon cartridge (Agilent Cat #G9206A).
The compound `O=C(c1cnc2c(c1)OCCN2)N1CCC(c2ccncc2)C1` (stereo not drawn) [US10364255, Ex. 38] gave an IC50 of 14.2 nM.

`CC(=O)N(C)[C@H]1CCN(C(=O)c2cnc3c(c2)OCCCN3)C1` [US10364255, Ex. 44] had an IC50 of 1.7 nM.

Turning to `CC(=O)N(C)[C@H]1CCN(C(=O)c2cnc3c(c2)OCCN3)C1` [US10364255, Ex. 39], half-maximal inhibition (IC50) was put at 8.1 nM.

With `CC(=O)N(C)[C@H]1CCN(C(=O)c2cnc3c(c2)OCC(C)(C)N3)C1` [US10364255, Ex. 14], half-maximal inhibition (IC50) required 0.5 nM. With `CC(=O)N(C)[C@H]1CCN(C(=O)c2cnc3c(c2)O[C@H](CO)CN3)C1` [US10364255, Ex. 41] the figure was 2.5 nM. With `CC(=O)N(C)[C@H]1CCN(C(=O)c2cnc3c(c2)O[C@H](C)CN3)C1` [US10364255, Ex. 32] the figure was 1.3 nM; with `O=C(c1cnc2c(c1)O[C@H](CO)CN2)N1CCC(c2ccncc2)C1` (stereo partly drawn) [US10364255, Ex. 43], 3.7 nM; with `O=C(c1cnc2c(c1)OCCN2)N1CCCCC1` [US10364255, Ex. 3], 2800 nM.

The values above are taken from BindingDB's records for patent US10364255 (Boehringer Ingleheim International, 2019).
